Measurements reported in patent US20230365561A1, “BETA-LACTAMASE INHIBITORS AND THEIR PREPARATION” (NINGXIA ACADEMY OF AGRICUL TURE AND FORESTRY SCIENCES, priority 2020, published 2023).
Structures can show the parent of a compound that is named as a salt. Where two headings read alike, the source gives them in different places.

Columns and labels:
Format in all cases: cell-based
[1] = system: E. coli clinical isolate (strain 1); test: MIC by broth microdilution (alone and in combination with meropenam), strain 1; conditions: Escherichia coli, compound alone
How it was run: (§1)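 Broth microdilution per CLSI M7-A8 in cation-adjusted Mueller-Hinton Broth II, inoculum approx. 5x10^5 CFU/mL, 37° C for 18-24 h, visual read. Meropenem two-fold series 0.125-64 mg/L; combinations held test compound constant at 4 µg/mL. MIC (mg/L) = lowest concentration preventing visible growth.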

E. coli 8739 (strain 2) = test: MIC by broth microdilution (alone and in combination with meropenam), strain 2; conditions: Escherichia coli, compound alone
How it was run: as §1

[2] = system: K. pneumoniae clinical isolate (strain 3); test: MIC by broth microdilution (alone and in combination with meropenam), strain 3; conditions: Klebsiella pneumoniae, compound alone
How it was run: as §1

[3] = system: K. pneumoniae 700603 (strain 4); test: MIC by broth microdilution (alone and in combination with meropenam), strain 4; conditions: Klebsiella pneumoniae, compound alone
How it was run: as §1

[4] = system: E. cloacae clinical isolate (strain 5); test: MIC by broth microdilution (alone and in combination with meropenam), strain 5; conditions: Enterobacter cloacae, compound alone
How it was run: as §1

[5] = system: E. cloacae 700323 (strain 6); test: MIC by broth microdilution (alone and in combination with meropenam), strain 6; conditions: Enterobacter cloacae, compound alone
How it was run: as §1

[6] = system: A. baumannii clinical isolate (strain 7); test: MIC by broth microdilution (alone and in combination with meropenam), strain 7; conditions: Acinetobacter baumannii, compound alone
How it was run: as §1

[7] = system: A. baumannii 19606 (strain 8); test: MIC by broth microdilution (alone and in combination with meropenam), strain 8; conditions: Acinetobacter baumannii, compound alone
How it was run: as §1

[8] = system: P. aeruginosa clinical isolate (strain 9); test: MIC by broth microdilution (alone and in combination with meropenam), strain 9; conditions: Pseudomonas aeruginosa, compound alone
How it was run: as §1

[9] = system: P. aeruginosa 9027 (strain 10); test: MIC by broth microdilution (alone and in combination with meropenam), strain 10; conditions: Pseudomonas aeruginosa, compound alone
How it was run: as §1

[10] = read-out: MIC, antibacterial activity of example alone

Measured: MIC

N=C(NC(=O)C1CCCN=N1)[C@@H]1CC[C@@H]2CN1C(=O)N2OS(=O)(=O)[O-].[Na+] (stereo partly drawn) [Ex.52, Sodium (2S,5R)-7-oxo-2-(N-(3,4,5,6-tetrahydropyridazine-3-carbonyl)carbamimidoyl)-1,6-diazabicyclo[3.2.1]octan-6-yl Sulfate]
> 64 µg/mL: [1]; read-out: MIC | E. coli 8739 (strain 2); read-out: MIC | [2]; read-out: MIC | [3]; read-out: MIC | [4]; read-out: MIC | [5]; read-out: MIC | [6]; read-out: MIC | [7]; read-out: MIC | [8]; read-out: MIC | [9]; read-out: MIC

CN1CC[C@H](C(=O)NC(=N)[C@@H]2CC[C@@H]3CN2C(=O)N3OS(=O)(=O)[O-])C1.[Na+] [Ex.32, Sodium (2S,5R)-2-(N-((S)-1-methylpyrrolidine-3-carbonyl)carbamimidoyl)-7-oxo-1,6-diazabicyclo[3.2.1]octan-6-yl Sulfate]
> 64 µg/mL: [1]; [10] | E. coli 8739 (strain 2); [10] | [2]; [10] | [3]; [10] | [4]; [10] | [5]; [10] | [6]; [10] | [7]; [10] | [8]; [10] | [9]; [10]

N=C(NC(=O)CCc1ccccn1)[C@@H]1CC[C@@H]2CN1C(=O)N2OS(=O)(=O)[O-].[Na+] [Ex.13, Sodium (2S,5R)-7-oxo-2-(N-(3-(pyridin-2-yl)propanoyl)carbamimidoyl)-1,6-diazabicyclo[3.2.1]octan-6-yl Sulfate]
> 64 µg/mL: [1]; [10] | E. coli 8739 (strain 2); [10] | [2]; [10] | [3]; [10] | [4]; [10] | [5]; [10] | [6]; [10] | [7]; [10] | [8]; [10] | [9]; [10]

N=C(N)NOCCCC(=O)NC(=N)[C@@H]1CC[C@@H]2CN1C(=O)N2OS(=O)(=O)O [Ex.47, (2S,5R)-2-(N-(4-(guanidinooxy)butanoyl)carbamimidoyl)-7-oxo-1,6-diazabicyclo[3.2.1]octan-6-yl Hydrogen Sulfate]
> 64 µg/mL: [1]; read-out: MIC | E. coli 8739 (strain 2); read-out: MIC | [2]; read-out: MIC | [3]; read-out: MIC | [4]; read-out: MIC | [5]; read-out: MIC | [6]; read-out: MIC | [7]; read-out: MIC | [8]; read-out: MIC | [9]; read-out: MIC
